# From patent US5965699A (priority 1996, dated 1999)
# Where two headings read alike, the source gives them in different places.
# Experiments:
# botox A [1] = target: T1, botox A (Clostridium botulinum, UniProt P0DPI1); experiment: biochemical; conditions: for inhibition at 1000 µM: read-out: inhibition of hydrolysis of peptide [1-17]
# botox A [2] = target: T1, botox A; type: biochemical; design: Rate (initial rate of peptide hydrolysis) / Rate (initial rate of hydrolysis) In AcBSA: unit not given here; conditions: for kcat: in 1/s
# botox A [3] = target: T1, botox A
# T1 sequence (P0DPI1 2-448 limits assumed): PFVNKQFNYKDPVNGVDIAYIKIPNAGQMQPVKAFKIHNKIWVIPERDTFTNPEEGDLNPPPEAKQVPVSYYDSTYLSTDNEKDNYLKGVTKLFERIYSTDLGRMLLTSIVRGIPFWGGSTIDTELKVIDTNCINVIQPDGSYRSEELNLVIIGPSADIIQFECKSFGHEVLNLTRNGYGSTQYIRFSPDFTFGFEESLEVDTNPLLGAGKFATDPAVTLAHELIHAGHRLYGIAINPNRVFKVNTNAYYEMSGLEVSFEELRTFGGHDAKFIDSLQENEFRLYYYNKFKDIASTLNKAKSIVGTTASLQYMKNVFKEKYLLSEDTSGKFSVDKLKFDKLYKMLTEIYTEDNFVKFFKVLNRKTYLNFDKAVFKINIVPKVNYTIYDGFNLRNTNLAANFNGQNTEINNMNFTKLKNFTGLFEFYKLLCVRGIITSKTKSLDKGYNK
substance,measurement,setting,value
"Ac-SNKTRIDEAAQRATKML-NH2 [N10A, S N K T R I D E A A Q R A T K M L]",inhibition at 1000 µM,botox A [1],30%
same,"hydrolysis by botox A, described in words",botox A [2],only very slowly cleaved
same,kcat as percent of that for peptide [1-17],botox A [2],about 4%
same,kcat,botox A [2],1.8 ± 0.1
"Ac-SNKTRIDEANQRATK-NH2 [[1-15], S N K T R I D E A N Q R A T K]",inhibition at 1000 µM,botox A [1],17%
same,Relative Rate (initial hydrolysis rates relative to peptide [1-17]),botox A [2],0.03
same,"hydrolysis by botox A, described in words",botox A [2],very slow rate of hydrolysis
same,kcat as percent of that for peptide [1-17],botox A [2],2-3%
same,kcat,botox A [2],~1.0
"Ac-SNKTRIDEANQRLTKML-NH2 [A13L, S N K T R I D E A N Q R L T K M L]",Ki,botox A [1],1000 to 2000 µM
same,inhibition at 1000 µM,botox A [1],30%
same,"hydrolysis by botox A, described in words",botox A [2],below the limits of detection
"Ac-SNKTRINEANQRATKML-NH2 [D7N, S N K T R I N E A N Q R A T K M L]",Relative Rate (initial hydrolysis rates relative to peptide [1-17]),botox A [2],0.23
same,kcat as percent of that for peptide [1-17],botox A [2],about 10%
same,kcat,botox A [2],5.0 ± 0.3
same,Km,botox A [2]; read-out: Km,820 ± 60 µM
"Ac-SNRTRIDEANQRATRML-NH2 [peptide 2, S N R T R I D E A N Q R A T R M L]",Kcat In AcBSA,botox A [2],61 s⁻¹
same,Kcat In BSA,botox A [2],68 s⁻¹
same,Rate (initial rate of hydrolysis) In AcBSA,botox A [2],16
same,Rate (initial rate of hydrolysis) In BSA,botox A [2],11
same,Rate (initial rate of peptide hydrolysis),botox A [2],11.3 ± 0.5
same,Relative Rate,botox A [2],1.5
same,"hydrolysis by botox A, described in words",botox A [2],slightly faster than peptide 1
same,Km,botox A [2]; read-out: Km In AcBSA,530 µM
same,Km,botox A [2]; read-out: Km In BSA,1400 µM
"Ac-SNRTRIDQANQRATRML-NH2 [compound 4, S N R T R I D Q A N Q R A T R M L]",Kcat In AcBSA,botox A [2],68 s⁻¹
same,Kcat In BSA,botox A [2],64 s⁻¹
same,Rate (initial rate of hydrolysis) In AcBSA,botox A [2],19
same,Rate (initial rate of hydrolysis) In BSA,botox A [2],13
same,Rate (initial rate of peptide hydrolysis),botox A [2],12.6 ± 0.5
same,Relative Rate,botox A [2],1.7
same,Km,botox A [2]; read-out: Km In AcBSA,470 µM
same,Km,botox A [2]; read-out: Km In BSA,760 µM
Ac-TRIDEANQRATKM-NH2 [13-residue peptide],reduction in rate of botox A-catalyzed hydrolysis,botox A [2],43%
gelatin,effect on hydrolysis of substrate peptides by botox A,botox A [3],no effect
lysozyme,effect on hydrolysis of substrate peptides by botox A,botox A [3],no effect
ovalbumin,effect on hydrolysis of substrate peptides by botox A,botox A [3],no effect
ribonuclease,effect on hydrolysis of substrate peptides by botox A,botox A [3],no effect
